What was measured:
[1] = Redox reaction of copper(II) complexes with GSH, anaerobic UV/Vis kinetics; assay type: physicochemical; details: copper(II) complex (1–4) of the proligand, pH = 7.4, ccomplex = 25 μM, cGSH = 1.25 mM
Method: The redox reactions of the copper(II) complexes with GSH and AA were studied at 25.0 ± 0.1 °C on Hewlett Packard 8452A diode array spectrophotometer using a special, tightly closed tandem cuvette (Hellma Tandem Cell, 238-QS). The reactants were separated until the reaction was triggered. Both isolated pockets of the cuvette were completely deoxygenated by bubbling a stream of argon for 10–15 min before mixing the reactants. Spectra were recorded before and then immediately after the mixing, and changes were followed until no further absorbance change was observed. One of the isolated pockets contained the reducing agent and its concentration was 1250 μM and the other contained 25 μM copper(II) complex. The pH of all the solutions was adjusted to 7.40 by 50 mM HEPES buffer and an ionic strength of 0.1 M (KCl) was applied. The stock solutions of the reducing agents and the complexes were freshly prepared every day. During the calculations, the absorbance (A) − time (t) curves were fitted and analysed at the λmax of the complex. (A0 − Afinal) × e^(−a×t) + Afinal equation was used where A0, Afinal and a parameters were refined and accepted at the minimal value of the weighted sum of squared residuals (difference between the measured and calculated absorbance values) at the given wavelength. Then observed rate constants (kobs) of the redox reaction were obtained from the data points of the simulated absorbance–time curves as the slope of the ln(A/A0) versus t plots.

OCT2 = target: T1, OCT2 (Homo sapiens, UniProt O15244); experiment: [3H]-MPP+ uptake inhibition assay in HEK-293 cells; assay type: cell-based; details: for IC50: HEK cells stably expressing human OCT2, 10 min uptake; for interaction with OCT2: [3H]-MPP+ uptake inhibition in HEK OCT2 cells
T1 construct: expressed in transfected cells
T1 sequence (O15244 1-555): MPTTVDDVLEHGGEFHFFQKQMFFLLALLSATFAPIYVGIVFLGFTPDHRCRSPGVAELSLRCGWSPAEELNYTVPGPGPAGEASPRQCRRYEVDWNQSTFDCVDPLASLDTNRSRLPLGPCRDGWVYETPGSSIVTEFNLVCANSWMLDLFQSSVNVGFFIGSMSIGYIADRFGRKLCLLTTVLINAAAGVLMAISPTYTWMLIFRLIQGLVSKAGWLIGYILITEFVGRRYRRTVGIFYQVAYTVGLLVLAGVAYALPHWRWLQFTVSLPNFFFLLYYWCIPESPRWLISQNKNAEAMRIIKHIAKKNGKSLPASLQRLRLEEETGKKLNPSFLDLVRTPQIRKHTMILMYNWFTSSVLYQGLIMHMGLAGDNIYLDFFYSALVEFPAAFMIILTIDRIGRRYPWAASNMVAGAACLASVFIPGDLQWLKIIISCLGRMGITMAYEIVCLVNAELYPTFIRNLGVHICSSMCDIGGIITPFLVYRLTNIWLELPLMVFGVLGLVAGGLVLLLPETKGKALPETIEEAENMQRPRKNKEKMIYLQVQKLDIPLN
Method: (§1) HEK–293 cells (LGC Standards GmbH, Germany) stably expressing human isoforms of wild type organic cation transporters 1–3 (OCT1–3) were cultured in Dulbecco’s modified Eagle’s medium (DMEM; Sigma-Aldrich) with high glucose (4.5 g/L) and L-glutamine (584 mg/L) supplemented with 10% foetal calf serum (FCS; Biowest) and penicillin/streptomycin mixture (50 mg/L; Sigma/Aldrich) at 37 °C in a humidified atmosphere (5% CO2). The selection reagent was Geneticin (150 U/mL; Merck, Germany) for all three cell lines. Cells were seeded onto poly-D-lysine (0.05 mg/mL; Sigma-Aldrich) precoated clear bottom Corning 96 well white assay plate (Sigma-Aldrich) at the density of 4 × 10^4 cells per well 24 h prior to the experiment.
(§2) The assay was performed as previously described with slight modification. Briefly, on the day of the experiment, cells were washed once with 100 µL Krebs-HEPES buffer (KHB; 10 mM HEPES, 120 mM NaCl, 3 mM KCl, 2 mM CaCl2·2H2O, 2 mM MgCl2·6H2O, 5 mM D-(+)- glucose, pH 7.3) at room temperature. Cells were preincubated for 10 min in 50 µL of RT KHB containing increasing concentrations of tested compounds previously dissolved in dimethyl sulfoxide (DMSO; final concentration in working solution was 1%). After that, the preincubation solution was quickly removed and replaced with 50 µL of uptake solution containing the aforementioned components with the addition of 50 nM [^3H]-1-methyl-4-phenylpyridinium ([^3H]-MPP^+; 60 Ci/mmol; American Radiolabeled Chemicals, Saint Louis, MO, USA). After the 10 min uptake at RT, the transport was stopped by washing cells with 100 µL of ice-cold KHB and adding 200 µL of Ultima GoldTM XR scintillation cocktail (PerkinElmer, MA, USA). The plates were shaken, placed into Wallac 1450 MicroBeta TriLux Liquid Scintillation Counter and Lumi (GMI, Ramsey, MN, USA) and the released radioactivity was measured for 3 min. Nonspecific [^3H]-MPP^+ uptake was measured in the presence of 100 µM decynium-22 and the data were plotted as a percentage of uptake in the presence of 1% DMSO from which the value of the nonspecific uptake was subtracted. Nonlinear regression analysis (GraphPad Prism version 5.0, GraphPad Software, San Diego, CA, USA) was used for calculation of IC50 values.

OCT3 = target: T2, OCT3 (Homo sapiens, UniProt O75751); experiment: [3H]-MPP+ uptake inhibition assay in HEK-293 cells; assay type: cell-based; details: HEK cells stably expressing human OCT3; 10 min uptake
T2 construct: expressed in transfected cells
T2 sequence (O75751 1-556): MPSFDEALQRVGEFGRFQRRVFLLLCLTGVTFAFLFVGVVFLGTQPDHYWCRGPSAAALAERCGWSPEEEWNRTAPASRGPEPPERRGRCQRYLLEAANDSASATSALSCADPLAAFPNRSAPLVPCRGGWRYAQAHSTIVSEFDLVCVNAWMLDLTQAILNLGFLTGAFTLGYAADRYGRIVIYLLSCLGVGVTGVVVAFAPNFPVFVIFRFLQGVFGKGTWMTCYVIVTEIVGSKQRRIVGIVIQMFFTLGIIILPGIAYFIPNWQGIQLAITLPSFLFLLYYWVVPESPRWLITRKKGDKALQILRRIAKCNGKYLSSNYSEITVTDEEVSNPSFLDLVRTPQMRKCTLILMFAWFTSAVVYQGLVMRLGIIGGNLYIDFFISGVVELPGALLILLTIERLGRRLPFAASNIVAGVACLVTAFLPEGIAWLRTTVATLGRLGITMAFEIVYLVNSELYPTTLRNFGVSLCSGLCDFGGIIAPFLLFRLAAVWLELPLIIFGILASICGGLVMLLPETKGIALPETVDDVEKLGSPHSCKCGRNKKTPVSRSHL
Method: as §1, §2

| IC50 (OCT2) [µM] | IC50 (OCT3) [µM] | SMILES | kobs, observed rate constant of the redox reaction with GSH [1] [min⁻¹] | interaction with OCT2 (OCT2) |
| --- | --- | --- | --- | --- |
| > 4000 | 103 ± 23.4 | CNC(=S)N/N=C/c1cc(C[N+](C)(C)C)ccc1O [[H2L^Me]Cl] | 0.073 ± 0.002 | no interaction |
| 371 ± 123 | 27.8 ± 5 | C[N+](C)(C)Cc1ccc(O)c(/C=N/NC(=S)Nc2ccccc2)c1 [[H2L^Ph]Cl] | 0.025 ± 0.005 | – |
| 236 ± 97.1 | 63.1 ± 8.9 | CCNC(=S)N/N=C/c1cc(C[N+](C)(C)C)ccc1O [[H2L^Et]Cl] | 0.058 ± 0.001 | – |

| SMILES | IC50 (OCT2) [µM] | IC50 (OCT3) [µM] | kobs, observed rate constant of the redox reaction with GSH [1] [min⁻¹] | interaction with OCT2 (OCT2) |
| --- | --- | --- | --- | --- |
| C[N+](C)(C)Cc1ccc(O)c(/C=N/NC(N)=S)c1 [[H2L^H]Cl] | > 4000 | 105 ± 32.8 | 0.080 ± 0.008 | no interaction |
